In patent US20180008587A1, “THIOHYDANTOIN ANDROGEN RECEPTOR ANTAGONISTS FOR THE TREATMENT OF CANCER” (Jaressen Pharmaceutica NV, priority 2016, published 2018):

Experiments:
[1] = molecular target: T1, AR-VP16 (Homo sapiens, UniProt P10275); assay: AR-VP16 DNA binding assay, HepG2; format: cell-based; conditions: HepG2, antagonist mode, 90 pM R1881, 48 hours; read-out: IC50 VP16 WT
T1 sequence (P10275 560-920 limits assumed): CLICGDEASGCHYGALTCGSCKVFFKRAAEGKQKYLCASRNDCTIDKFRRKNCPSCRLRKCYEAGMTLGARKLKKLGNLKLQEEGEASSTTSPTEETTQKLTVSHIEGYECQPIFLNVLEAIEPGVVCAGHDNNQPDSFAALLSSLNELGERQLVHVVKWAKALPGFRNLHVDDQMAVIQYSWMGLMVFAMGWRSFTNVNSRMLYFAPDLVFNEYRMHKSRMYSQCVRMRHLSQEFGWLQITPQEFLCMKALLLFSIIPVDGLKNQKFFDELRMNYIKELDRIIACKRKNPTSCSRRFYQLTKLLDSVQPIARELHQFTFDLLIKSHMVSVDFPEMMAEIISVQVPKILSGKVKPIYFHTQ
Method: (§1) HepG2 cells were maintained in EMEM supplemented with 10% FBS. One day before transfection, the media was changed to EMEM with 10% CSS. […] Cells were then trypsinized, counted and resuspended at 500,000 cells/mL. For agonist mode, the compounds were serially diluted and 50 μL of the compound was added per well. 50 μL of the cells were added to each well and incubated for 48 hours. For antagonist mode, a final concentration of 90 pM (VP16 AR) or 1 nM (VP16 F876L) R1881 was added to the plate and incubated for 48 hours. The plates were then assayed using SteadyGlo and read on the Envision. Percent Stimulation and Inhibition were determined and analyzed using GraphPad Prism.

[2] = molecular target: T2, F876L-VP16 (Homo sapiens, UniProt P10275, F877L); assay: AR-VP16 DNA binding assay, HepG2; format: cell-based; conditions: HepG2, antagonist mode, 1 nM R1881, 48 hours
T2 construct: VP16 (fusion partner); expressed in transfected cells; host or cells: HepG2
T2 sequence (P10275 1-920 F877L): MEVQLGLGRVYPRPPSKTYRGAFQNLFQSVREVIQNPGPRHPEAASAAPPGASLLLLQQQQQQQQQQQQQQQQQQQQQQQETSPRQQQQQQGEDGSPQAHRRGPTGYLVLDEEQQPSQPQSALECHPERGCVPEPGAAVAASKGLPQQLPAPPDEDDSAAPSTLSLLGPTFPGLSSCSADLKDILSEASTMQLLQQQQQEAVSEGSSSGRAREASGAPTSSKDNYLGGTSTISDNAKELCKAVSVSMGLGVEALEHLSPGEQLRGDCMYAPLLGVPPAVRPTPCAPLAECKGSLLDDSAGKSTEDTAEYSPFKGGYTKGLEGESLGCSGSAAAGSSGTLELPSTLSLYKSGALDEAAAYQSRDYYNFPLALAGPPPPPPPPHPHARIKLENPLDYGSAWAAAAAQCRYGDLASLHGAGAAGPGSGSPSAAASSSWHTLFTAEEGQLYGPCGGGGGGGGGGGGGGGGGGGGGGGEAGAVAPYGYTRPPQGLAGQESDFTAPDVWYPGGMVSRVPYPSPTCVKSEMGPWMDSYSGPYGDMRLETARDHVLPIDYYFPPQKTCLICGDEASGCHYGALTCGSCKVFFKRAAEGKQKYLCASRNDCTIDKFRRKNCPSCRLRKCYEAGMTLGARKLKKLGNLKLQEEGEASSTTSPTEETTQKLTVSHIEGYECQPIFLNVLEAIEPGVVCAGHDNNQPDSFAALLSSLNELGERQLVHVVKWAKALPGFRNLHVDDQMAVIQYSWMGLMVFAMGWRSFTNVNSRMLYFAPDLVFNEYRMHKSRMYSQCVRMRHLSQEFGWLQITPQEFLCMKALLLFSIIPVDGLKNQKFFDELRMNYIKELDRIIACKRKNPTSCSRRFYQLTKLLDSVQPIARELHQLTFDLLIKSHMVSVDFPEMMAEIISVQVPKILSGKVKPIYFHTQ
Method: as §1

[3] = tested on: androgen dependent signaling; assay: Hershberger assay; format: in vivo, rat; conditions: castrated rats, mean ± SD (n=6)
Method: The effect of AR antagonists on androgen dependent signaling in vivo was assessed using the Hershberger assay. In this assay, peripubertal castrated male Sprague-Dawley rats were administered AR antagonists described herein in the presence of testosterone (0.4 mg/kg testosterone propionate) and the weights of androgen dependent organs measured. Dosing was continued for 10 days and measurements taken 24 h after the last dose. The extent of antagonism of AR and consequent inhibition of organ growth was evaluated by comparison to the castration control. Compounds of Formula (I) were dosed orally QD and an endpoint assessment made by change in weight of 5 androgen sensitive organs (ASO): Paired Cowper's Glands (CG), Seminal Vesicles with Fluids and Coagulating Glands (SVCG), Glans Penis (GP), Ventral Prostate (VP) and Levator Ani-Bulbocavernosus Complex (LABC)). According to assay guidelines, statistically significant suppression of ASO is required in 2 of 5 organs for a compound to be classified as an anti-androgen (analysis was performed by t-test/Mann-Whitney).
Compounds defined herein were administered at the indicated dose (mg/kg) and flutamide (FT), positive control, at 3 mg/kg. All compounds were co-administered with testosterone propionate (TP, 0.4 mg/kg) which was also administered alone, untreated control, (castrated only rats served as the control for complete androgen blockade). A statistically significant change in ASO achieved in at least 2 of 5 organs was indicative of an active compound.

[4] = tested on: LNCaP SRα F876L tumors; assay: Castrate resistant prostate cancer xenograft study; format: in vivo, mouse; conditions: castrate SHO mice
Method: Castrate six to seven week old male SCID Hairless Outbred mice (SHO, Charles Rivers Laboratories) were used as the host strain for xenograft studies. LNCaP SRα F876L tumors were established in host mice and the anti-tumor activity of compounds defined herein was determined. Dosing was initiated when tumors reached 100 to 200 mm^3 and animals were randomized to each of test groups (vehicle (HP-β-CD), 10 mg/kg, 30 mg/kg or 50 mg/kg compound). Compound was dosed orally, QD, for 28 days and tumor size was measured twice weekly along with body weight measurement. At the end of study, the TGI was calculated using initial tumor volume and final tumor volume measurements. TGI: 100−(Treated/Control*100). At the termination of study tumors were collected and stored for further analyses.

[5] = 3 mg/kg orally QD 10 days with testosterone propionate 0.4 mg/kg
[6] = 10 mg/kg orally QD 10 days with testosterone propionate 0.4 mg/kg
[7] = 30 mg/kg orally QD 10 days with testosterone propionate 0.4 mg/kg

| SMILES | IC50 [1] [nM] | IC50 [2] [nM] | ASO Organ Growth (% of TP control) SVCG [3, 5] | ASO Organ Growth (% of TP control) VP [3, 5] | ASO Organ Growth (% of TP control) SVCG [3, 6] | ASO Organ Growth (% of TP control) VP [3, 6] | ASO Organ Growth (% of TP control) SVCG [3, 7] | ASO Organ Growth (% of TP control) VP [3, 7] | TGI (%) ([4]; 10 mg/kg orally QD 28 days) | TGI (%) ([4]; 30 mg/kg orally QD 28 days) |
| --- | --- | --- | --- | --- | --- | --- | --- | --- | --- | --- |
| N#Cc1ncc(N2C(=O)C3(CCC3)N(c3ccc(C(=O)NCCCO)c(F)c3)C2=S)cc1C(F)(F)F [Cpd 40, 4-[6-[6-cyano-5-(trifluoromethyl)-3-pyridyl]-5-oxo-7-thioxo-6,8-diazaspiro[3.4]octan-8-yl]-2-fluoro-N-(3-hydroxypropyl)benzamide] | 24 | 994 | – | – | – | – | – | – | – | – |
| CN1CCC(Oc2ccc(N3C(=S)N(c4cnc(C#N)c(C(F)(F)F)c4)C(=O)C34CCC4)cc2)CC1 [Cpd 85, 5-[8-[4-[(1-methyl-4-piperidyl)oxy]phenyl]-5-oxo-7-thioxo-6,8-diazaspiro[3.4]octan-6-yl]-3-(trifluoromethyl)pyridine-2-carbonitrile] | – | – | 67.3 ± 20.2 % of TP control | 72.3 ± 18.5 % of TP control | 31.6 ± 37.7 % of TP control | 37.4 ± 25.6 % of TP control | 8.5 ± 14.7 % of TP control | 13.2 ± 19.2 % of TP control | 80.2 | 100.8 |
| N#Cc1ncc(N2C(=O)C3(CCC3)N(c3ccc(OC4CCNCC4)cc3)C2=S)cc1C(F)(F)F [Cpd 35, 5-[5-oxo-8-[4-(4-piperidyloxy)phenyl]-7-thioxo-6,8-diazaspiro[3.4]octan-6-yl]-3-(trifluoromethyl)pyridine-2-carbonitrile] | 3390 | 2740 | – | – | – | – | 28.1 ± 19.5 % of TP control | 25.7 ± 22.9 % of TP control | – | 53 |
